Measured values: publication PMC10812557, “Progressive Design of a Ranatuerin-2 Peptide from Amolops wuyiensis: Enhancement of Bioactivity and In Vivo Efficacy” (Antibiotics, 2023)
Several values for one entry are separate records, joined by “and”; a condition that tells them apart may be missing. Equal values may be shown once.

Assays:
E. coli (ATCC 8739) [1] = assay: Time–killing assay; format: cell-based, Escherichia coli; details: peptide control
Experimental: (§1) S. aureus (NCTC 10788), E. coli (ATCC 8739), MRSA (NCTC 12493), and P. aeruginosa (ATCC 9027) were used in this assay. Treatments of 2 × MIC, 1 × MIC, and 0.5 × MIC of [Lys^4,19, Leu^20]R2AW(1-22)-NH2 were prepared and mixed with 198 μL of diluted bacteria (5 × 10^5 CFU/mL). At each time point (0, 10, 20, 30, 60, 90, 120, and 180 min), 10 μL of peptide and bacteria mixture was dropped onto the MHA plate. After overnight incubation, the number of bacterial colonies was calculated. The CFU/mL could be calculated using the formula CFU/mL = (Number of colonies × dilution factor)/volume of culture.

[2] = system: P. aeruginosa (ATCC 9027); assay: Time–killing assay; format: cell-based, Pseudomonas aeruginosa; details: peptide control
Experimental: as §1

E. coli (ATCC 8739) [3] = format: cell-based; details: E. coli (ATCC 8739)
Procedure, shortened: (§2)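 Bacteria grown overnight at 37 °C were diluted to 5 × 10^5 CFU/mL in log phase and incubated 18 h at 37 °C with 2-fold peptide dilutions, with absorbance read at 550 nm. MIC was the lowest concentration preventing growth. For MBC, clear wells were plated on Mueller Hinton agar overnight, and MBC was the lowest concentration giving no colonies.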

[4] = system: P. aeruginosa (ATCC 9027); format: cell-based; details: P. aeruginosa (ATCC 9027)
Procedure, shortened: as §2

[5] = system: K. pneumoniae (ATCC 43816); format: cell-based; details: K. pneumoniae (ATCC 43816)
Procedure, shortened: as §2

Colistin [reference compound]
killing effect in time–killing curve (E. coli (ATCC 8739) [1]): rapid bacterial killing effect | killing effect in time–killing curve [2]: rapid bacterial killing effect | MBC (E. coli (ATCC 8739) [3]): 0.3 mg/L and 0.25 µM | MIC (E. coli (ATCC 8739) [3]): 0.1 mg/L and 0.125 µM | MBC [4]: 2.3 mg/L and 2 µM | MIC [4]: 1.2 mg/L and 1 µM | MBC [5]: 18.5 mg/L and 16 µM | MIC [5]: 18.5 mg/L and 16 µM
